Test: xn = mol fraction of the nth substance listed

CCOS(=O)(=O)[O-].CC[N+](CC)=C(N(C)C)N(C)C + O
viscosity [mPa·s], 100 kPa
Conditions | x1 = 0.0999 | x1 = 0.2003 | x1 = 0.3005 | x1 = 0.4004 | x1 = 0.4989 | x1 = 0.6001 | x1 = 0.7 | x1 = 0.801 | x1 = 0.8982
293.15 K | 12.38 | 25.31 | 39.06 | 53.18 | 68.18 | 85.88 | 107 | 132.6 | 160.6
298.15 K | 10.01 | 19.81 | 29.97 | 40.42 | 51.48 | 64.33 | 79.13 | 97.08 | 116.9
303.15 K | 8.224 | 15.93 | 23.79 | 31.86 | 40.31 | 49.98 | 60.7 | 73.9 | 88.11
308.15 K | 6.765 | 12.88 | 19.09 | 25.43 | 32.02 | 39.28 | 47.26 | 57.08 | 67.41
313.15 K | 5.628 | 10.63 | 15.72 | 20.82 | 26.05 | 31.62 | 37.7 | 45.18 | 53.08
318.15 K | 4.66 | 8.802 | 13.04 | 17.16 | 21.39 | 25.68 | 30.35 | 36.2 | 42.47
323.15 K | 3.828 | 7.374 | 10.99 | 14.3 | 17.61 | 21.15 | 24.97 | 29.66 | 34.73

CCCCOCCO + CCCO
viscosity [mPa·s], 101 kPa
Conditions | x1 = 0.3032 | x1 = 0.8553 | x1 = 0.9516
298.15 K | – | 2.725 | –
303.15 K | 1.925 | – | 2.615

CC(C)OCCO + CN1CCCC1=O
298.15 K, 101 kPa
Conditions | viscosity [mPa·s]
x1 = 0.004 | 1.691
x1 = 0.0105 | 1.702
x1 = 0.0362 | 1.729
x1 = 0.0624 | 1.753
x1 = 0.088 | 1.764
x1 = 0.1136 | 1.779
x1 = 0.1577 | 1.814
x1 = 0.2017 | 1.843
x1 = 0.2462 | 1.882
x1 = 0.3116 | 1.929
x1 = 0.3451 | 1.955
x1 = 0.3748 | 1.969
x1 = 0.4055 | 1.989
x1 = 0.4494 | 2.011
x1 = 0.5127 | 2.045
x1 = 0.5735 | 2.073
x1 = 0.6423 | 2.096
x1 = 0.7229 | 2.118
x1 = 0.7639 | 2.134
x1 = 0.8354 | 2.127
x1 = 0.9185 | 2.12
x1 = 0.9736 | 2.109
x2 = 0.0086 | 2.107

COC(=O)c1ccccc1 + CS(C)=O
303.15 K, 101 kPa
Conditions | viscosity [mPa·s]
x1 = 0.1946 | 1.757
x1 = 0.2734 | 1.752
x1 = 0.3608 | 1.751
x1 = 0.4584 | 1.751
x1 = 0.5683 | 1.723
x1 = 0.6931 | 1.682

— the CheMixHub viscosity set
